Consider four compounds from US5077280A, “Treatment of viral infections” (priority 1988, dated 1991).

Series [1] relates to bone marrow cells. The series is classed as cell-based, human. Conditions: 5 μM AZT for 2 hours; 50-100 μM of uridine (and also cytidine).
In series [2] the test system is viral replication (reverse transcriptase). Nature of the series: suppression of viral replication (assessed by inhibition of reverse transcriptase). In kind it is cell-based. The following applies: combination molar ratios (uridine/AZT) as high as 10,000/1.
The conditions of series [3]: in vivo; cited from earlier work.
The test system of series [4] is human CFU-GM cells. Nature of the series: human CFU-GM cell proliferation. Conditions: concentrations as high as 100 μM. The series is classed as cell-based.
In series [5] the test system is human bone marrow cells. Put plainly: toxicity for human bone marrow cells. The series is classed as cell-based.
Series [6] has as its system bone marrow cell growth (granulocyte-macrophages and erythrocytes). Conditions: patients; cited from earlier work.

Molecules are shown by their SMILES.

`O=c1ccn([C@@H]2O[C@H](CO)[C@@H](O)[C@H]2O)c(=O)[nH]1` [uridine]: the “reversal of toxic effects of antiviral nucleoside analogues” value in series [1] is on record as “essentially completely reversed”. Also, the “impairment of suppression of viral replication” value in series [2] is “no impairment of suppression of viral replication”. The “clearance by the body” value in series [3] is reported as “cleared rapidly”.

Take `Nc1ccn([C@@H]2O[C@H](CO)[C@@H](O)[C@H]2O)c(=O)n1` [cytidine]: the “reversal of toxic effects of antiviral nucleoside analogues” value in series [1] is “essentially completely reversed”.

`O=c1[nH]c(=O)n(COCCO)cc1Cc1ccccc1` [BAU, benzylacyclouridine]: in series [4], the “effect on human CFU-GM cell proliferation” value is given as “no substantial effect”. Moreover, the “toxicity per se for human bone marrow cells” value in series [5] is “non-toxic”.

`Cc1cn([C@H]2C[C@H](N=[N+]=[N-])[C@@H](CO)O2)c(=O)[nH]c1=O` [AZT, 3'-azido-3'deoxythymidine]: in series [6], the “common complication of AZT therapy” value is “suppression of bone marrow cell growth”.
